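Grown in 96-well plates, cells were treated for 48 hours with each compound at five concentrations. Insufficient inhibition: endpoint recorded as highest concentration tested. TGI: concentration producing complete growth inhibition.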
Assays:
Experiment in all cases: DTP human tumour cell line panel, 48 h
DMS 273 small cell lung = tested on: DMS 273 small cell lung
SW-620 colon = tested on: SW-620 colon
OVCAR-3 ovarian = tested on: OVCAR-3 ovarian
COLO 205 colon = tested on: COLO 205 colon
HOP-18 NSCLC = tested on: HOP-18 NSCLC
CCRF-CEM leukemia = tested on: CCRF-CEM leukemia
LOX IMVI melanoma = tested on: LOX IMVI melanoma
NCI-H226 lung = tested on: NCI-H226 lung
OVCAR-5 ovarian = tested on: OVCAR-5 ovarian
HCT-15 colon = tested on: HCT-15 colon

| SMILES | TGI (DMS 273 small cell lung) | TGI (SW-620 colon) | TGI (OVCAR-3 ovarian) | TGI (COLO 205 colon) | TGI (HOP-18 NSCLC) | TGI (CCRF-CEM leukemia) | TGI (LOX IMVI melanoma) | TGI (NCI-H226 lung) | TGI (OVCAR-5 ovarian) | TGI (HCT-15 colon) |
| --- | --- | --- | --- | --- | --- | --- | --- | --- | --- | --- |
| Cc1ccc(NC(=O)/C(CC(=O)c2c[n+](=O)c3ccccc3n2O)=N\NC(=O)C[n+]2ccccc2)cc1 | > 100 µM | > 100 µM | > 100 µM | > 100 µM | > 100 µM | > 100 µM | > 100 µM | > 100 µM | > 100 µM | > 100 µM |
| COc1cc2c(c(OC)c1OC)-c1[nH]ncc1CC2 | > 100 µM | > 100 µM | > 100 µM | > 100 µM | > 100 µM | > 100 µM | > 100 µM | > 100 µM | > 100 µM | > 100 µM |
| Nc1ccc(Nc2nc(F)nc(-c3c4ccccc4c4n3CCS4)n2)cc1 | 24 µM | 27.9 µM | 34.7 µM | 41.5 µM | 33.9 µM | 62.2 µM | 24.6 µM | 25.9 µM | 32.8 µM | 25.5 µM |
| O=C1C=C(Nc2ccccc2C(=O)CC(=O)C(=O)Nc2cccc(C(F)(F)F)c2)c2ccccc2C1=O | > 94.4 µM | 48.6 µM | 53.8 µM | > 100 µM | 40.6 µM | 44.7 µM | 27.3 µM | > 100 µM | > 100 µM | > 100 µM |
| Cc1c(C(=O)/C=C/c2ccc(Cl)cc2)[n+](=O)c2ccccc2n1[O-] | 25.4 µM | 21.9 µM | 27.4 µM | 27.1 µM | 57.7 µM | > 100 µM | 20.5 µM | 33.7 µM | 28.3 µM | 24.1 µM |
| O=C(OCCOCBr)c1ccccc1 | > 100 µM | > 100 µM | > 100 µM | > 100 µM | > 100 µM | > 100 µM | > 100 µM | > 100 µM | > 100 µM | > 100 µM |
